molecular target: FAAH (Homo sapiens (Human), UniProt O00519); assay: Assay Method 1: FAAH assay, T84 cell homogenate, 3H-anandamide hydrolysis; type: biochemical; details: 3H-AEA tracer 200 nM, 1 h at rt
Experimental: T84 frozen pellets (contents of 1-4×15 cm culture dishes) were homogenized in 300 mL of FAAH assay buffer (125 mM Tris, 1 mM EDTA, 0.2% glycerol, 0.02% Triton X-100, 0.4 mM Hepes, pH 9). The assay mixture was prepared from 50 μL of the cell homogenate, 10 μL of the test compound, and 40 μL of anandamide [1-3H-ethanolamine] (^3H-AEA; Perkin-Elmer, 10.3 Ci/mmol), which was added last, for a final tracer concentration of 200 nM. The reaction mixture was incubated at rt for 1 hour (h). During the incubation, 96-well Multiscreen filter plates (catalog number MAFCNOB50; Millipore, Bedford, Mass., USA) were loaded with 25 μL of activated charcoal (Multiscreen column loader, catalog number MACL09625, Millipore) and washed once with 100 μL of MeOH. Also during the incubation, 96-well DYNEX MicroLite plates (catalog number NL510410) were loaded with 100 μL of MicroScint40 (catalog number 6013641, Packard Bioscience, Meriden, Conn., USA). After the 1 h incubation, 60 μL of the reaction mixture were transferred to the charcoal plates, which were then assembled on top of the DYNEX plates using Centrifuge Alignment Frames (catalog number MACF09604, Millipore). The unbound, labeled ethanolamine was centrifuged through to the bottom plate (5 min at 2000 rpm), which was preloaded with the scintillant, as described above. The plates were sealed and left at rt for 1 h before counting on a Hewlett Packard TopCount.

FAAH, sequence (O00519 whole entry): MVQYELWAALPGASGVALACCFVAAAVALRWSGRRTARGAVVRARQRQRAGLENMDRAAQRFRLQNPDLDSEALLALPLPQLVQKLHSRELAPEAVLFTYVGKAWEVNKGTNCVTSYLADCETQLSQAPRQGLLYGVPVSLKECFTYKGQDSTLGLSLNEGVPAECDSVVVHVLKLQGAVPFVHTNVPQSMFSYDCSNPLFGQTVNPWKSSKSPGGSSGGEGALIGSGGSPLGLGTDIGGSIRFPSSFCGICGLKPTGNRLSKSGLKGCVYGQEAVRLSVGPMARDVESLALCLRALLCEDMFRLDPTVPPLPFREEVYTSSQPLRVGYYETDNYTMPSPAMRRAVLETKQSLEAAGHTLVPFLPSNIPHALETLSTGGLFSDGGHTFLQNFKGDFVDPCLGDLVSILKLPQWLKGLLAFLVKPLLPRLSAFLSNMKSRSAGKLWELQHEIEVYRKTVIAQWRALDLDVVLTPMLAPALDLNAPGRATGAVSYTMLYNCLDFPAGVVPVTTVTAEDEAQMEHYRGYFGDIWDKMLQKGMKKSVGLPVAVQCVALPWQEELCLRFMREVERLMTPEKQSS

Going from O=C(Nc1ccccc1)N1CCN(Cc2cc3ccccc3s2)CC1 [Example 20, 4-Benzo[b]thiophen-2-ylmethyl-piperazine-1-carboxylic acid phenylamide] to O=C(Nc1ccccc1)N1CCN(Cc2cnc3ccccc3c2)CC1 [Example 23, 4-Quinolin-3-ylmethyl-piperazine-1-carboxylic acid phenylamide], the IC50 rises from 19 nM to 73 nM (3.8-fold).

O=C(Nc1ccccc1)N1CCN(Cc2ccc(I)cc2)CC1 [Example 24, 4-(4-Iodo-benzyl)-piperazine-1-carboxylic acid phenylamide] and O=C(Nc1ccccc1)N1CCN(Cc2ccc(Br)cc2)CC1 [Example 27, 4-(4-Bromo-benzyl)-piperazine-1-carboxylic acid phenylamide] are within 1.5-fold of each other in IC50: 52 nM for the first, 69 nM for the second.

O=C(Nc1ccccc1)N1CCN(Cc2cccc(OCc3ccccc3)c2)CC1 [Example 25, 4-(3-Benzyloxy-benzyl)-piperazine-1-carboxylic acid phenylamide] and O=C(Nc1ccccc1)N1CCN(Cc2cccc(Oc3ccccc3)c2)CC1 [Example 28, 4-(3-Phenoxy-benzyl)-piperazine-1-carboxylic acid phenylamide] are within 1.5-fold of each other in IC50: 57 nM for the first, 80 nM for the second.

Compared with O=C(Nc1ccccc1)N1CCN(Cc2ccc(F)c(Br)c2)CC1 [Example 29, 4-(3-Bromo-4-fluoro-benzyl)-piperazine-1-carboxylic acid phenylamide], Cc1cccc(CN2CCN(C(=O)Nc3ccccc3)CC2)c1 [Example 42, 4-(3-Methyl-benzyl)-piperazine-1-carboxylic acid phenylamide] is 17-fold higher in IC50: 120 nM for the first, 2000 nM for the second. The first is the more potent here.

First: O=C(Nc1ccccc1)N1CCN(Cc2ccc3c(c2)CCC3)CC1 [Example 30, 4-Indan-5-ylmethyl-piperazine-1-carboxylic acid phenylamide]
Second: O=C(Nc1ccccc1)N1CCN(Cc2ccc3c(c2)CCO3)CC1 [Example 38, 4-(2,3-Dihydro-benzofuran-5-ylmethyl)-piperazine-1-carboxylic acid phenylamide]
The IC50 of the first is 3.4-fold lower: 180 nM for the first, 620 nM for the second.

First: O=C(Nc1ccccc1)N1CCN(Cc2csc3ccccc23)CC1 [Example 31, 4-Benzo[b]thiophen-3-ylmethyl-piperazine-1-carboxylic acid phenylamide]
Second: O=C(Nc1ccccc1)N1CCN(Cc2cccc3ccccc23)CC1 [Example 40, 4-Naphthalen-1-ylmethyl-piperazine-1-carboxylic acid phenylamide]
The IC50 of the first is 5.5-fold lower: 200 nM for the first, 1100 nM for the second. The first is the more potent here.

First: CCc1ccc(CN2CCN(C(=O)Nc3ccccc3)CC2)cc1 [Example 33, 4-(4-Ethyl-benzyl)-piperazine-1-carboxylic acid phenylamide]
Second: COc1ccc(CN2CCN(C(=O)Nc3ccccc3)CC2)cc1 [Example 36, 4-(4-Methoxy-benzyl)-piperazine-1-carboxylic acid phenylamide]
The IC50 of the first is 1.7-fold lower: 280 nM for the first, 470 nM for the second.

Going from O=C(Nc1ccccc1)N1CCN(Cc2ccc3c(c2)OCCO3)CC1 [Example 35, 4-(2,3-Dihydro-benzo[1,4]dioxin-6-ylmethyl)-piperazine-1-carboxylic acid phenylamide] to O=C(Nc1ccccc1)N1CCN(Cc2ccc3[nH]ccc3c2)CC1 [Example 43, 4-(1H-Indol-5-ylmethyl)-piperazine-1-carboxylic acid phenylamide], the IC50 rises from 460 nM to 4000 nM (8.7-fold). The first is the more potent here.

Going from C=Cc1cccc(CN2CCN(C(=O)Nc3ccccc3)CC2)c1 [Example 37, 4-(3-Vinyl-benzyl)-piperazine-1-carboxylic acid phenylamide] to COc1cccc(CN2CCN(C(=O)Nc3ccccc3)CC2)c1 [Example 39, 4-(3-Methoxy-benzyl)-piperazine-1-carboxylic acid phenylamide], the IC50 rises from 590 nM to 1100 nM (1.9-fold).

First: COc1ccc(CN2CCN(C(=O)Nc3ccccc3)CC2)cc1OC [Example 44, 4-(3,4-Dimethoxy-benzyl)-piperazine-1-carboxylic acid phenylamide]
Second: O=C(Nc1ccccc1)N1CCN(Cc2ccncc2)CC1 [Example 45, 4-Pyridin-4-ylmethyl-piperazine-1-carboxylic acid phenylamide]
The IC50 of the first is lower: 4000 nM for the first, greater than 10000 nM for the second.

— patent publication US9169224B2, “Piperazinyl and piperidinyl ureas as modulators of fatty acid amide hydrolase” (Janssen Pharmaceutica NV, priority 2004, dated 2015)
